What was measured:
[1] = biological target: T1, Ogataea minuta endo-β-N-acetylglucosaminidase Endo-Om, wild type (recombinant, purified), SEQ ID NO: 1 (Ogataea minuta, UniProt R4WHQ8); test: Km and Vmax for NGA2-Asn-Fmoc hydrolysis, purified Endo-Om (HPLC); assay type: biochemical
T1 sequence (R4WHQ8 1-772): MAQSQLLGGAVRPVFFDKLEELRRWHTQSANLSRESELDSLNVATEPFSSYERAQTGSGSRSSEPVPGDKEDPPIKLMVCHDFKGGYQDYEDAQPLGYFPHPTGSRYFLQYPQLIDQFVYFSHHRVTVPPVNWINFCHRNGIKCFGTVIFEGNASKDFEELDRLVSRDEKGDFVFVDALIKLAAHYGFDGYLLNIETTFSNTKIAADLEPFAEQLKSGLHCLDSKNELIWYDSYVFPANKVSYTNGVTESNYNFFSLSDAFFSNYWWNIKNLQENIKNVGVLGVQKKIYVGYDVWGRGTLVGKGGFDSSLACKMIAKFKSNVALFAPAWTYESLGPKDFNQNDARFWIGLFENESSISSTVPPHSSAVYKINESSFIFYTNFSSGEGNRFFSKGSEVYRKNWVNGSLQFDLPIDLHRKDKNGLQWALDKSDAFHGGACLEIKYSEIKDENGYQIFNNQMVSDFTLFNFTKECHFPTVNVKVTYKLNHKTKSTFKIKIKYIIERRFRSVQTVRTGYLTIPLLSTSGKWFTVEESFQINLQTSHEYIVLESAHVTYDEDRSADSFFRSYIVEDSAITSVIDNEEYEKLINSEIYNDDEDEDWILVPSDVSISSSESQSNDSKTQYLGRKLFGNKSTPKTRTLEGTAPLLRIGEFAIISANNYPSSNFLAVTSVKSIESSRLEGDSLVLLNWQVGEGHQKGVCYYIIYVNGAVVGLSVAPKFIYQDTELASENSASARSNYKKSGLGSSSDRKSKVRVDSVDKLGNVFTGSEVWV
Method: (§1) The enzyme activity was measured as follows. A reaction solution (total volume: 10 μl) containing 100 mM of a sodium acetate buffer (pH 5.3) at the final concentration, 0.5 M NaCl, 10 μM of a Fmoc-labeled biantennary complex type sugar chain (NGA2-Asn-Fmoc), and an Endo-Om crude enzyme solution was incubated at 50° C. for 1 hour, and heated at 95° C. for 5 minutes, thereby stopping the enzyme reaction. The reaction solution was subjected to HPLC, and the enzymatic activity was calculated from the peak area ratio between the NGA2-Asn-Fmoc as the substrate and its hydrolysate. The column was Asahipak NH2P-50 4E (4.6.250 mm, Shodex), and the solvents were acetonitrile (solvent A) and 200 mM of TEAA (pH 7.0, GLEN RESEARCH: solvent B). Isocratic elution was carried out at a flow rate of 1.0 ml/min, and the solvent B: 43%, and detection was carried out using a fluorescence detector (excitation wavelength 265 nm, and fluorescence wavelength 315 nm). The activity hydrolyzing 1 vol of NGA2-Asn-Fmoc in 1 minute under the above-described reaction conditions was defined as 1 Unit of the enzymatic activity of Endo-Om.
(§2) The properties of Endo-Om were studied using a purified enzyme solution. According to the method described in Example 4, the Endo-Om crude enzyme solution prepared from 100 ml culture was substituted with an equilibration buffer (20 mM sodium phosphate buffer (pH 7.4), 0.5 M NaCl, 0.5 mM PMSF, 50 mM imidazole) by dialysis. […] According to the method described in Example 4, the activity of the Endo-Om purified enzyme solution when the substrate concentration was 1 mM was measured, and the specific activity was calculated. In addition, activity measurement was carried out using NGA2-Asn-Fmoc at different concentrations as the substrates, and Km and Vmax were calculated. For comparison, the specific activity, Km, and Vmax of the commercially available Endo-M were calculated by the same method. […]

[2] = biological target: T2, Mucor hiemalis endo-β-N-acetylglucosaminidase Endo-M (commercially available) (Mucor hiemalis, UniProt Q9C1S6); test: Km and Vmax for NGA2-Asn-Fmoc hydrolysis, commercially available Endo-M (HPLC); assay type: biochemical; settings: sodium acetate pH 6.0, 0.5 M NaCl, 50° C.
T2 sequence (Q9C1S6 1-744): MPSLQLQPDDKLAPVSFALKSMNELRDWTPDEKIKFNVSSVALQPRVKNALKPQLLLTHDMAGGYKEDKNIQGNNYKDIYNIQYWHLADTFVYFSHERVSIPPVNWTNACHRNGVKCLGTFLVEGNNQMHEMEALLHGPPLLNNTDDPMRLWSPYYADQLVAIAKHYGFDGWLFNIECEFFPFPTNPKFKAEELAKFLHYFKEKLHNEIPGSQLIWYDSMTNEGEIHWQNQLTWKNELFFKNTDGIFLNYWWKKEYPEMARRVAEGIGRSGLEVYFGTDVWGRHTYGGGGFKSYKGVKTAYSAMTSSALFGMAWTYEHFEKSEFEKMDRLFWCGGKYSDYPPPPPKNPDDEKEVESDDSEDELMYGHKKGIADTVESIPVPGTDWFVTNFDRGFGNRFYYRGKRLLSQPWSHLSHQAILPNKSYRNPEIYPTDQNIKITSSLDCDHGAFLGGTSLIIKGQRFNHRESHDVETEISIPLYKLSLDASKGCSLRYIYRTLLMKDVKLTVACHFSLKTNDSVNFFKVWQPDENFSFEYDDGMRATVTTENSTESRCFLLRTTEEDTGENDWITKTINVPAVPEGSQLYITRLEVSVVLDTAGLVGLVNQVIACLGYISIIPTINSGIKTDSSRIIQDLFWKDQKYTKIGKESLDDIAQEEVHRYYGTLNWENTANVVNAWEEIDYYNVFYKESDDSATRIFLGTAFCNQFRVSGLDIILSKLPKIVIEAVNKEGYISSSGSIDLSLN
Method: as §1, with “The column was Asahipak NH2P-50 4E (4.6.250 mm, Shodex), and the solvents were acetonitrile (solvent A) and 200 mM of TEAA (pH 7.0, GLEN RESEARCH: solvent B).” left out, “The activity hydrolyzing 1 vol of NGA2-Asn-Fmoc in 1 minute under the above-described reaction conditions was defined as 1 Unit of the enzymatic activity of Endo-Om.” left out
as §2, with “solution.” for “solution. According to the method described in Example 4, the Endo-Om crude enzyme solution prepared from 100 ml culture was substituted with an equilibration buffer (20 mM sodium phosphate buffer (pH 7.4), 0.5 M NaCl, 0.5 mM PMSF, 50 mM imidazole) by dialysis.”

Km ([1]; Endo-Om, sodium acetate pH 5.3, 0.5 M NaCl, 50° C., NGA2-Asn-Fmoc at different concentrations): 5.54 mM
Vmax ([1]; Endo-Om, sodium acetate pH 5.3, 0.5 M NaCl, 50° C., unit as printed in b33 and b95): 3.88 µmol/min/mg
Vmax of Endo-Om relative to Vmax of Endo-M ([1]; ratio Endo-Om / Endo-M): 55 times
Vmax [2]: 0.070 µmol/min/mg
Compound: CC(=O)N[C@@H]1[C@@H](O)[C@H](O[C@@H]2O[C@H](CO)[C@@H](O[C@@H]3O[C@H](CO[C@H]4O[C@H](CO)[C@@H](O)[C@H](O)[C@@H]4O[C@@H]4O[C@H](CO)[C@@H](O)[C@H](O)[C@H]4NC(C)=O)[C@@H](O)[C@H](O[C@H]4O[C@H](CO)[C@@H](O)[C@H](O)[C@@H]4O[C@@H]4O[C@H](CO)[C@@H](O)[C@H](O)[C@H]4NC(C)=O)[C@@H]3O)[C@H](O)[C@H]2NC(C)=O)[C@@H](CO)O[C@H]1NC(=O)C[C@H](NC(=O)OCC1c2ccccc2-c2ccccc21)C(=O)O [NGA2-Asn-Fmoc]

Source: patent US9371519B2, “Complex type sugar chain hydrolase” (National Institute of Advanced Industrial Science and …, priority 2011, dated 2016)
